Key:
[1] = test system: rabbit serum obtained by immunizing a rabbit with the SARS-CoV strain Frankfurt 1; assay type: binding; parameters: Binding of a rabbit serum to linear peptides / Binding of a rabbit serum to looped peptides / Rabbit serum linear peptides / Rabbit serum looped peptides / Binding of a rabbit serum to linear peptides of protein N of SARS-CoV Urbani (Rabbit serum linear peptides) / Binding of a rabbit serum to looped/cyclic peptides of protein N of SARS-CoV Urbani (Rabbit serum looped peptides): unit not given here
[2] = test system: recombinant human anti-SARS-CoV antibody 03-018; assay type: binding; parameters: Binding of antibody 03-018 to linear peptides of the N protein of SARS-CoV Urbani / Binding of antibody 03-018 to looped/cyclic peptides of the N protein of SARS-CoV Urbani: unit not given here
[3] = test system: antibodies in sera from SARS patients (sera 1a, 1b, 2, 6, 37, 62, London, SARS-yellow, SARS-green); assay type: binding, human; parameters: Binding of serum 6 to linear peptides of protein X1 of SARS-CoV Urbani / Binding of serum 37 to linear peptides of protein X1 of SARS-CoV Urbani / Binding of serum 6 to looped/cyclic peptide (PEPSCAN-ELISA) / Binding of serum 37 to looped/cyclic peptide (PEPSCAN-ELISA) / Binding of serum 37 to looped/cyclic peptides of protein X1 of SARS-CoV Urbani / Binding of serum 6 to linear peptides of protein X2 / Binding of serum 37 to linear peptides of protein X2 / Binding of serum 37 to looped/cyclic peptides of protein X2 of SARS-CoV Urbani / Binding of serum 6 to linear peptides of protein M of SARS-CoV Urbani / Binding of serum 37 to linear peptides of protein M of SARS-CoV Urbani / Binding of serum 6 to looped/cyclic peptides of protein M of SARS-CoV Urbani / Binding of serum 37 to looped/cyclic peptides of protein M of SARS-CoV Urbani / Binding of serum 6 to linear peptides of protein X3 of SARS-CoV Urbani / Binding of serum 37 to linear peptides of protein X3 of SARS-CoV Urbani / Binding of serum 37 to looped/cyclic peptides of protein X3 of SARS-CoV Urbani / Binding of serum 6 to linear peptides of protein X4 of SARS-CoV Urbani / Binding of serum 37 to linear peptides of protein X4 of SARS-CoV Urbani / Binding of serum 37 to looped/cyclic peptides of protein X4 of SARS-CoV Urbani / Binding of serum 6 to linear peptides of protein X5 of SARS-CoV Urbani / Binding of serum 37 to linear peptides of protein X5 of SARS-CoV Urbani / Binding of serum 37 to looped/cyclic peptides of protein X5 of SARS-CoV Urbani / Binding of serum 6 to linear peptides of protein N of SARS-CoV Urbani / Binding of serum 37 to linear peptides of protein N of SARS-CoV Urbani / Binding of serum 6 to linear peptide (PEPSCAN-ELISA) / Binding of serum 1a to looped/cyclic peptides of protein N of SARS-CoV Urbani / Binding of serum 1b to looped/cyclic peptides of protein N of SARS-CoV Urbani / Binding of serum 2 to looped/cyclic peptides of protein N of SARS-CoV Urbani / Binding of serum 6 to looped/cyclic peptides of protein N of SARS-CoV Urbani / Binding of serum 37 to looped/cyclic peptides of protein N of SARS-CoV Urbani / Binding of serum 62 to looped/cyclic peptides of protein N of SARS-CoV Urbani / Binding of serum London to looped/cyclic peptides of protein N of SARS-CoV Urbani / Binding of serum SARS-green to looped/cyclic peptides of protein N of SARS-CoV Urbani: unit not given here
[4] = test system: control sera (pooled serum of ten healthy LUMC hospital workers; commercial negative donor pooled serum from the Dutch bloodbank); assay type: binding, human; parameters: Binding of Control serum LUMC to linear peptides / Binding of Control serum Blood-bank to linear peptides / Binding of Control serum LUMC to looped peptides / Binding of Control Serum Blood-Bank to Looped peptides / Binding of Control serum LUMC to linear peptides of the protein M of SARS-CoV Urbani / Binding of Control serum Blood-bank to linear peptides of the protein M of SARS-CoV Urbani / Binding of Control serum LUMC to looped peptides of the protein M of SARS-CoV Urbani / Binding of Control Serum Blood-Bank to Looped peptides of the protein M of SARS-CoV Urbani: unit not given here

QGTDYKHWPQIAQFA
0.1: Binding of antibody 03-018 to linear peptides of the N protein of SARS-CoV Urbani [2]
0.6: Binding of serum 37 to looped/cyclic peptides of protein N of SARS-CoV Urbani [3] | Binding of serum 62 to looped/cyclic peptides of protein N of SARS-CoV Urbani [3] | Control Serum Blood-Bank Looped peptides [4] | Control serum LUMC linear peptides [4]
0.8: Binding of serum 37 to linear peptides of protein N of SARS-CoV Urbani [3] | Binding of serum 62 to linear peptides of protein N of SARS-CoV Urbani [3] | Control serum Blood-bank linear peptides [4]
0.4: Binding of serum 1a to looped/cyclic peptides of protein N of SARS-CoV Urbani [3] | Binding of serum 2 to looped/cyclic peptides of protein N of SARS-CoV Urbani [3]
0.5: Binding of serum London to looped/cyclic peptides of protein N of SARS-CoV Urbani [3]
0.2: Binding of a rabbit serum to linear peptides of protein N of SARS-CoV Urbani (Rabbit serum linear peptides) [1] | Binding of antibody 03-018 to looped/cyclic peptides of the N protein of SARS-CoV Urbani [2] | Binding of serum 1b to linear peptides of protein N of SARS-CoV Urbani [3] | Binding of serum 2 to linear peptides of protein N of SARS-CoV Urbani [3] | Binding of serum 6 to linear peptides of protein N of SARS-CoV Urbani [3] | Binding of serum SARS-green to linear peptides of protein N of SARS-CoV Urbani [3]
0.7: Binding of serum London to linear peptides of protein N of SARS-CoV Urbani [3] | Binding of serum SARS-yellow to linear peptides of protein N of SARS-CoV Urbani [3] | Binding of serum SARS-yellow to looped/cyclic peptides of protein N of SARS-CoV Urbani [3] | Control serum LUMC looped peptides [4]
0.3: Binding of a rabbit serum to looped/cyclic peptides of protein N of SARS-CoV Urbani (Rabbit serum looped peptides) [1] | Binding of serum 1a to linear peptides of protein N of SARS-CoV Urbani [3] | Binding of serum 1b to looped/cyclic peptides of protein N of SARS-CoV Urbani [3] | Binding of serum 6 to looped/cyclic peptides of protein N of SARS-CoV Urbani [3] | Binding of serum SARS-green to looped/cyclic peptides of protein N of SARS-CoV Urbani [3]

QIGYYRRATRRVRGG
0.7: Binding of serum 37 to looped/cyclic peptides of protein N of SARS-CoV Urbani [3] | Binding of Control serum LUMC to looped peptides [4]
0.3: Binding of serum 1a to linear peptides of protein N of SARS-CoV Urbani [3] | Binding of serum 1a to looped/cyclic peptides of protein N of SARS-CoV Urbani [3] | Binding of serum 6 to looped/cyclic peptides of protein N of SARS-CoV Urbani [3]
0.8: Binding of Control Serum Blood-Bank to Looped peptides [4] | Binding of Control serum Blood-bank to linear peptides [4]
0.4: Binding of serum 2 to looped/cyclic peptides of protein N of SARS-CoV Urbani [3] | Binding of serum London to looped/cyclic peptides of protein N of SARS-CoV Urbani [3] | Binding of serum SARS-green to looped/cyclic peptides of protein N of SARS-CoV Urbani [3]
0.6: Binding of serum 37 to linear peptides of protein N of SARS-CoV Urbani [3] | Binding of serum 62 to linear peptides of protein N of SARS-CoV Urbani [3] | Binding of serum 62 to looped/cyclic peptides of protein N of SARS-CoV Urbani [3] | Binding of serum SARS-yellow to linear peptides of protein N of SARS-CoV Urbani [3] | Binding of serum SARS-yellow to looped/cyclic peptides of protein N of SARS-CoV Urbani [3] | Binding of Control serum LUMC to linear peptides [4]
0.5: Binding of serum London to linear peptides of protein N of SARS-CoV Urbani [3]
0.1: Binding of antibody 03-018 to linear peptides of the N protein of SARS-CoV Urbani [2] | Binding of serum 1b to linear peptides of protein N of SARS-CoV Urbani [3]
recognized: Recognition of the peptide by the rabbit serum [1]
0.2: Binding of antibody 03-018 to looped/cyclic peptides of the N protein of SARS-CoV Urbani [2] | Binding of serum 1b to looped/cyclic peptides of protein N of SARS-CoV Urbani [3] | Binding of serum 2 to linear peptides of protein N of SARS-CoV Urbani [3] | Binding of serum 6 to linear peptides of protein N of SARS-CoV Urbani [3] | Binding of serum SARS-green to linear peptides of protein N of SARS-CoV Urbani [3]

QLQNSMSGASADSTQ
0.7: Binding of a rabbit serum to linear peptides of protein N of SARS-CoV Urbani (Rabbit serum linear peptides) [1] | Binding of serum 37 to linear peptides of protein N of SARS-CoV Urbani [3]
0.5: Binding of a rabbit serum to looped/cyclic peptides of protein N of SARS-CoV Urbani (Rabbit serum looped peptides) [1] | Binding of serum 62 to linear peptides of protein N of SARS-CoV Urbani [3] | Control Serum Blood-Bank Looped peptides [4]
0.3: Binding of serum 1a to looped/cyclic peptides of protein N of SARS-CoV Urbani [3] | Binding of serum London to looped/cyclic peptides of protein N of SARS-CoV Urbani [3] | Binding of serum SARS-green to linear peptides of protein N of SARS-CoV Urbani [3]
0.4: Binding of serum 2 to looped/cyclic peptides of protein N of SARS-CoV Urbani [3] | Binding of serum 37 to looped/cyclic peptides of protein N of SARS-CoV Urbani [3] | Control serum LUMC looped peptides [4]
0.8: Control serum Blood-bank linear peptides [4]
0.6: Binding of serum London to linear peptides of protein N of SARS-CoV Urbani [3] | Binding of serum SARS-yellow to linear peptides of protein N of SARS-CoV Urbani [3] | Control serum LUMC linear peptides [4]
0.2: Binding of antibody 03-018 to looped/cyclic peptides of the N protein of SARS-CoV Urbani [2] | Binding of serum 1a to linear peptides of protein N of SARS-CoV Urbani [3] | Binding of serum 2 to linear peptides of protein N of SARS-CoV Urbani [3]
0.1: Binding of antibody 03-018 to linear peptides of the N protein of SARS-CoV Urbani [2] | Binding of serum 1b to linear peptides of protein N of SARS-CoV Urbani [3] | Binding of serum 1b to looped/cyclic peptides of protein N of SARS-CoV Urbani [3] | Binding of serum 6 to linear peptides of protein N of SARS-CoV Urbani [3] | Binding of serum 6 to looped/cyclic peptides of protein N of SARS-CoV Urbani [3] | Binding of serum 62 to looped/cyclic peptides of protein N of SARS-CoV Urbani [3] | Binding of serum SARS-green to looped/cyclic peptides of protein N of SARS-CoV Urbani [3] | Binding of serum SARS-yellow to looped/cyclic peptides of protein N of SARS-CoV Urbani [3]

QNGGRNGARPKQRRP
0.4: Binding of a rabbit serum to looped/cyclic peptides of protein N of SARS-CoV Urbani (Rabbit serum looped peptides) [1] | Binding of serum 62 to looped/cyclic peptides of protein N of SARS-CoV Urbani [3]
0.5: Binding of serum London to linear peptides of protein N of SARS-CoV Urbani [3] | Binding of serum SARS-green to linear peptides of protein N of SARS-CoV Urbani [3] | Binding of serum SARS-yellow to looped/cyclic peptides of protein N of SARS-CoV Urbani [3]
0.3: Binding of antibody 03-018 to looped/cyclic peptides of the N protein of SARS-CoV Urbani [2] | Binding of serum 1a to looped/cyclic peptides of protein N of SARS-CoV Urbani [3] | Binding of serum 2 to linear peptides of protein N of SARS-CoV Urbani [3] | Binding of serum 2 to looped/cyclic peptides of protein N of SARS-CoV Urbani [3] | Binding of serum London to looped/cyclic peptides of protein N of SARS-CoV Urbani [3]
0.8: Binding of serum 62 to linear peptides of protein N of SARS-CoV Urbani [3] | Binding of Control serum LUMC to linear peptides [4] | Binding of Control serum LUMC to looped peptides [4]
0.6: Binding of serum 37 to looped/cyclic peptides of protein N of SARS-CoV Urbani [3] | Binding of serum SARS-green to looped/cyclic peptides of protein N of SARS-CoV Urbani [3] | Binding of Control Serum Blood-Bank to Looped peptides [4] | Binding of Control serum Blood-bank to linear peptides [4]
0.2: Binding of a rabbit serum to linear peptides of protein N of SARS-CoV Urbani (Rabbit serum linear peptides) [1] | Binding of antibody 03-018 to linear peptides of the N protein of SARS-CoV Urbani [2] | Binding of serum 1a to linear peptides of protein N of SARS-CoV Urbani [3] | Binding of serum 6 to linear peptides of protein N of SARS-CoV Urbani [3] | Binding of serum 6 to looped/cyclic peptides of protein N of SARS-CoV Urbani [3]
0.7: Binding of serum 37 to linear peptides of protein N of SARS-CoV Urbani [3] | Binding of serum SARS-yellow to linear peptides of protein N of SARS-CoV Urbani [3]
0.1: Binding of serum 1b to linear peptides of protein N of SARS-CoV Urbani [3] | Binding of serum 1b to looped/cyclic peptides of protein N of SARS-CoV Urbani [3]

From patent publication US20070128217A1 (priority 2003, published 2007)
